According to patent US11786534B2 (TAIHO PHARMACEUTICAL CO., LTD., priority 2019, dated 2023):

Columns and labels:
Type in all cases: biochemical
[1] = biological target: T1, human EGFR (d746-750/T790M/C797S) (Homo sapiens, UniProt P00533, C797S/DEL746-750/T790M); assay: Inhibitory activity against EGFR (d746-750/T790M/C797S) kinase
T1 construct: made in house; host or cells: Sf9 insect cells, baculovirus
Method: 1) Measurement of inhibitory activity against EGFR (d746-750/T790M/C797S) kinase
The compounds of the above examples and comparative examples were measured for their inhibitory activity against EGFR (d746-750/T790M/C797S) kinase activity. Among the materials required for measurement of this inhibitory activity, the kinase protein (SEQ ID NO: 1) used was prepared as follows: the cytoplasmic domain of human EGFR (d746-750/T790M/C797S) fused at the ammo terminal end with a glutathione-S-transferase (GST) tag was expressed M insect cells (Sf9) by the baculovirus expression system and then purified an a glutathione sepharose column. For use as a substrate peptide, a peptide biotinylated at the N-terminal end (biotin -EEPLYWSFPAKKK) was synthesized by reference to Perkin Elmer LabChip® series reagent FL-Peptide 22.
Procedures for measurement of the inhibitory activity are as follows. First, the compounds of the present invention were each dissolved in dimethyl sulfoxide (DMSO), and their serial dilutions were then prepared with DMSO. Secondly, each compound serial dilution (final concentration of DMSO during kinase reaction: 2.5%) or DMSO (final concentration: 2.5%) was mixed with a solution containing the substrate peptide (final concentration: 250 nM), magnesium chloride (final concentration: 10 mM), manganese chloride (final concentration: 10 mM) and ATP (final concentration: 6 μM) in a kinase reaction buffer (Carna Biosciences Inc., Japan), and the EGFR (d746-750/T790M/C797S) protein was further added thereto, followed by incubation at 25° C. for 120 minutes to cause kinase reaction. To the reaction solution, EDTA was added to give a final concentration of 24 mM to thereby stop the reaction, followed by addition of a phospholylated tyrosine detection solution containing europium-labeled anti-phosphorylated tyrosine antibody PT66 (Perkin Elmer) and SureLight APC-SA (Perkin Elmer). The reaction solution was allowed to stand at room temperature for 2 hours or longer. As a background, DMSO was used instead of each compound solution in .DMSO, and EDIA was added prior to the addition of the EGFR EGFR (d746-750/T790M/C797S) protein, followed by incubation at 25° C. for 120 minutes. The same detection solution was also added to this reaction solution, which was then allowed to stand for 2 hours or longer. Finally, all the test samples were measured with a PHERAstar FS reader (BMG LABTECH) for their fluorescence intensity at two wavelengths of 620 nm and 665 nm upon irradiation with an excitation light of 337 nm wavelength, and the ratio of fluorescence intensities at these two wavelengths was obtained as data for each compound.
Moreover, as control compounds, the above Comparative Example A (Example 3 in WO2013/118817) and Comparative Example B (Example 35 in WO2013/118817) known to have EGFR inhibitory activity were used.
In accordance with the same procedures as shown in 1) in Test Example 1, the compounds of the above examples were measured for their inhibitory activity against EGFR (d746-750/T790M/C797S) kinase activity.

[2] = biological target: T2, human EGFR (L858R/T790M/C797S) (Homo sapiens, UniProt P00533, C797S/L858R/T790M); assay: Inhibitory activity against EGFR (L858R/T790M/C797S) kinase
T2 construct: made in house; host or cells: Sf9 insect cells, baculovirus
Method: 2) Measurement of inhibitory activity against EGFR (L858R/T790M/C797S) kinase
The compounds of the presein invention were measured for their inhibitory activity against EGFR (L858R/T790M/C797S) kinase activity.
The materials, measurement procedures and data analysis method used in this test are substantially the same as those shown in the section “Measurement of inhibitory activity against EGFR (d746-750/T790M/C797S) kinase.” However, among the materials, the kinase protein (SEQ ID NO: 2) used was prepared as follows: the cytoplasmic domain of human EGFR (L858R/T790M/C797S) fused at the amino terminal end with a GST tag was expressed in insect cells (Sf9) by the baculovirus expression system and then purified on a glutathione sepharose column. In the measurement procedures, the final concentration of ATP was set to 0.5 μM. Finally, data analysis was conducted to determine the IC50 value (nM) of each compound against EGFR (L858R/T790M/C797S).
In accordance with the same procedures as shown in 2) in Test Example 1, the compounds of the present invention were measured for their inhibitory activity against EGFR (L858R/T790M/C797S) kinase activity.

[3] = biological target: T3, human EGFR (d746-750/C797S) (Homo sapiens, UniProt P00533, C797S/DEL746-750); assay: Inhibitory activity against EGFR (d746-750/C797S) kinase
T3 construct: purchased SignalChem
Method: 3) Measurement of inhibitory activity against EGFR (d746-750/C797S) kinase
The compounds of the present invention were measured for their inhibitory activity against EGFR (d746-750/C797S) kinase activity.
The materials, measurement procedures and data analysis method used in this test are substantially the same as those shown in the section “Measurement of inhibitory activity aiainst EGFR (d746-750/T790M/C797S) kinase.” However, among the materials, the kinase protein used was a purified recombinant human EGFR (d746-750/C797S) protein purchased from SignalChem, while the kinase reaction buffer used was 13.5 mM Tris (pH 7.5) containing 2 mM dithiothreitol and 0.009% Tween-20. In the measurement procedures, the final concentration of ATP was set to 14 μM, the final concentration of maganesium chloride was set to 20 mM, the final concentration of manganese chloride was set to 12.5 mM, the incubation time for kinase reaction was set to 60 minutes, and the final concentration of EDTA used to stop the kinase reaction was set to 40 mM. Finally, data analysis was conducted to determine to IC50 value (nM) of each compound against EGFR (d746-750/C797S).
In accordance with the same procedures as shown in 3) in Test Example 1, the compounds of the present invention were measured for their inhibitory activity against EGFR (d746-750/C797S) kinase activity.

human EGFR (L858R/C797S) = biological target: T4, human EGFR (L858R/C797S) (Homo sapiens, UniProt P00533, C797S/L858R); assay: Inhibitory activity against EGFR (L858R/C797S) kinase
T4 construct: purchased SignalChem
Method: 4) Measurement of inhibitory activity against EGFR (L858R/C797S) kinase
The compounds of the present invention were measured for their inhibitory activity aeainst EGFR (L858R/C797S) kinase activity.
The materials, measurement procedures and data analysis method used in this test are stibstantially the same as those shown in the section “Measurement of inhibitory activity against EGFR (d746-750/C797S) kinase.” However, among the materials, the kinase protein used was a purified recombinant human EGFR (C797S/L858R) protein purchased from SignalChem. In the measurement procedures, the final concentration of ATP was set to 4 μM, and the incubation time for kinase reaction was set to 90 minutes. Finally, data analysis was conducted determine the IC50 value (nM) of each compound against EGFR (L858R/C797S).
In accordance with the same procedures as shown in 4) in Test Example 1, the compounds of the present invention were measured for their inhibitor activity against. EGFR (L858R/C797S) kinase activity.

human EGFR (WT) = biological target: T5, human EGFR (WT) (Homo sapiens, UniProt P00533); assay: Inhibitory activity against EGFR (WT) kinase
T5 construct: purchased Carna Biosciences Inc., Japan
Method: The compounds of the present invention were measured for their inhibitory activity nainst EGFR (WT) kinase activity.
The materials, measurement procedures and data analysis method used in this test. are substantially the same as those shown in the section “Measurement of inhibitory activity against EGFR (d746-750/T790M/C797S) kinase.” However, among the materials, the kinase protein used was a purified recombinant human EGFR (WT) purchased from Carna Biosciences Inc., Japan. In the measurement procedures, the final concentration of ATP was set to 1.5 μM. Finally, data analysis was conducted to determine the IC50 value (nM) of each compound against EGFR (WT).
In accordance with the same procedures as shown in 5) in Test Example 1, the compounds of the present invention were measured for their inhibitory activity against. EGFR (WT) kinase activity.

[4] = Test Example 3, Table 8; same procedures as 1) in Test Example 1
[5] = Test Example 3, Table 9; same procedures as 2) in Test Example 1
[6] = Test Example 3, Table 10; same procedures as 3) in Test Example 1
[7] = Test Example 3, Table 11; same procedures as 4) in Test Example 1
[8] = Test Example 3, Table 12; same procedures as 5) in Test Example 1
[9] = Test Example 1, Table 2, ATP 6 μM, 25° C., 120 minutes
[10] = Test Example 1, Table 3, ATP 0.5 μM
[11] = Test Example 1, Table 4, ATP 14 μM, 60 minutes
[12] = Test Example 1, Table 5, ATP 4 μM, 90 minutes
[13] = Test Example 1, Table 6, ATP 1.5 μM

Compound | IC50 [1, 4] | IC50 [2, 5] | IC50 [3, 6] | IC50 (human EGFR (L858R/C797S); [7]) | IC50 (human EGFR (WT); [8]) | IC50 [1, 9] | IC50 [2, 10] | IC50 [3, 11] | IC50 (human EGFR (L858R/C797S); [12]) | IC50 (human EGFR (WT); [13])
C#Cc1c(-c2cnc3ccccc3c2)c2c(N)ncnc2n1C12CCC(NC(=O)c3ccc(P(C)(C)=O)cn3)(CC1)C2 [Example 70, N-(4-(4-Amino-6-ethynyl-5-(quinolin-3-yl)-7H-pyrrolo[2,3-d]pyrimidin-7-yl)bicyclo-[2.2.1]heptan-1-yl)-5-(dimethylphosphoryl)picolinamide] | < 0.3 nM | < 0.3 nM | 0.7 nM | 1.6 nM | 0.94 nM | – | – | – | – | –
C#Cc1c(-c2cnc3ccccc3c2)c2c(N)ncnc2n1C12CCC(NC(=O)c3nccn4ccnc34)(CC1)C2 [Example 42] | – | – | – | – | – | < 0.3 nM | < 0.3 nM | 0.48 nM | 0.43 nM | 0.31 nM
C#Cc1c(-c2cnc3ccccc3c2)c2c(N)ncnc2n1C12CCC(NC(=O)c3nccnn3)(CC1)C2 [Example 19, N-(4-(4-Amino-6-ethynyl-5-(quinolin-3-yl)-7H-pyrrolo[2,3-d]pyrimidin-7-yl)bicyclo-[2.2.1]heptan-1-yl)-1,2,4-triazine-3-carboxamide] | – | – | – | – | – | < 0.3 nM | < 0.3 nM | < 0.3 nM | 0.3 nM | 0.39 nM
C#Cc1c(-c2cnc3ccccc3c2)c2c(N)ncnc2n1C12CCC(NC(=O)c3cnc(CNC)cn3)(CC1)C2 [Example 67, N-(4-(4-Amino-6-ethynyl-5-(quinolin-3-yl)-7H-pyrrolo[2,3-d]pyrimidin-7-yl)bicyclo-[2.2.1]heptan-1-yl)-5-((methylamino)methyl)pyrazine-2-carboxamide] | < 0.3 nM | < 0.3 nM | 0.3 nM | 0.37 nM | 0.35 nM | – | – | – | – | –
C#Cc1c(-c2cnc3ccccc3c2)c2c(N)ncnc2n1C12CCC(N(C)C(=O)c3ncco3)(CC1)C2 [Example 58, N-[4-(4-Amino-6-ethynyl-5-quinolin-3-ylpyrrolo[2,3-d]pyrimidin-7-yl)-1-bicyclo-[2.2.1]heptan-1-yl]-N-methyloxazole-2-carboxamide] | – | – | – | – | – | < 0.3 nM | 1.5 nM | 2.2 nM | 3.4 nM | 3.9 nM

More lines, now with the values ahead:

IC50 [1, 4] | IC50 [2, 5] | IC50 [3, 6] | IC50 (human EGFR (L858R/C797S); [7]) | IC50 (human EGFR (WT); [8]) | IC50 [1, 9] | IC50 [2, 10] | IC50 [3, 11] | IC50 (human EGFR (L858R/C797S); [12]) | IC50 (human EGFR (WT); [13]) | Compound
– | – | – | – | – | < 0.3 nM | < 0.3 nM | 0.46 nM | 0.45 nM | 0.84 nM | C#Cc1c(-c2cnc3ccccc3c2)c2c(N)ncnc2n1C12CCC(NC(=O)c3cncc(C#N)c3)(CC1)C2 [Example 34, N-(4-(4-Amino-6-ethynyl-5-(quinolin-3-yl)-7H-pyrrolo[2,3-d]pyrimidin-7-yl)-bicyclo-[2.2.1]heptan-1-yl)-5-cyanonicotinamide]
– | – | – | – | – | < 0.3 nM | 0.42 nM | < 0.3 nM | 0.35 nM | 0.55 nM | C#Cc1c(-c2cnc3ccccc3c2)c2c(N)ncnc2n1C12CCC(NC(=O)c3cnnn3C)(CC1)C2 [Example 22, N-(4-(4-Amino-6-ethynyl-5-(quinolin-3-yl)-7H-pyrrolo[2,3-d]pyrimidin-7-yl)bicyclo-[2.2.1]heptan-1-yl)-1-methyl-1H-1,2,3-triazole-5-carboxamide]
– | – | – | – | – | < 0.3 nM | 0.59 nM | 0.33 nM | 0.36 nM | 0.41 nM | N-4-(4-Amino-6-ethynyl-5-(quinolin-3-yl)-7H-pyrrolo[2,3-d]pyrimidin-7-yl)bicyclo -[2.2.1]heptane-1-yl)oxazole-5-carboxamide [Example 47]
– | – | – | – | – | < 0.3 nM | 0.31 nM | 0.32 nM | 0.39 nM | 0.62 nM | C#Cc1c(-c2cnc3ccccc3c2)c2c(N)ncnc2n1C12CCC(NC(=O)c3cc(CF)nn3C)(CC1)C2 [Example 29, N-(4-(4-Amino-6-ethynyl-5-(quinolin-3-yl)-7H-pyrrolo[2,3-d]pyrimidin-7-yl)bicyclo-[2.2.1]heptan-1-yl)-3-(fluoromethyl)-1-methyl-1H-pyrazole-5-carboxamide]
– | – | – | – | – | < 0.3 nM | 0.56 nM | 0.62 nM | 0.95 nM | 1.1 nM | C#Cc1c(-c2cnc3ccccc3c2)c2c(N)ncnc2n1C12CCC(CO)(CC1)C2 [Example 10]
